Experimental findings from a melting point compilation (Tetko et al.; mined from patent text by program, amines drawn as free bases though some values may be those of a salt) are described below.

Structures are written as SMILES. Residues, ends and D or L forms follow the SMILES beside them. *: point of attachment. Cbz = O=C(OCc1ccccc1)*; Boc = CC(C)(C)OC(=O)*

A word on the melting point: it is the temperature of the solid-liquid transition. Molecule `CC(NS(C)(=O)=O)c1ccc2[nH]cc(CCN3C(=O)c4ccccc4C3=O)c2c1` (centres undefined) displayed a melting point of 203 to 205 °C.
Molecule `COc1cc(OC)c(C(=O)C=Cc2ccc(SC)cc2)c(OP(=O)(O)O)c1` displayed a melting point of 63 to 66 °C.
To `CCCCNC(=O)NS(=O)(=O)c1cc2c(cc1OC)OCC(NC(=O)c1cc(Cl)ccc1OC)C2` (centres undefined) belongs 185 to 186 °C; to `Nc1ccc2c(c1)N(C(=O)CCCl)CC2`, 158 to 159 °C.
As for `O=C(O)c1ccc(C(=O)N2Cc3cccn3Cc3ccccc32)c(Cl)c1`, the figure is 198 to 199 °C; as for `Cc1cc(-n2nc(C(F)(F)F)cc2-c2ccc(S(C)(=O)=O)cc2)ccc1F`, 134 to 136 °C.
The molecule `Cc1ccc(C)c(NC(=O)NCC2(c3ccccc3)CCCCC2)c1` yielded a melting point of 202 to 203 °C.
To `CC(C)(C)OC(=O)NC(CCCCNC(=O)OCc1ccccc1)C(=O)N1CCCC1C(=O)NC(CCCNC(=N)N)C(=O)O` (stereo not drawn) (Boc-Lys(Cbz)-Pro-Arg-OH; configuration not given here) belongs 90 °C; to `OC[C@H]1CC[C@H](c2ccc(Cl)cc2)CC1`, 60 to 63 °C; to `CCCCS(=O)(=O)NC(=O)N1CC1C#N` (centres undefined), 80 to 85 °C.
As for `Oc1ccc(CCc2cccc(O)c2)cc1`, the figure is 108 °C; as for `CCCc1nc2c(N)nc3ccccc3c2n1CCOCCCS(=O)(=O)C(C)C`, 176 to 177 °C.
In the case of `C=C(C)c1cc(C(=O)OC)c(OCc2ccccc2)cc1OCc1ccccc1`, the melting point lay in the range of 92 to 94 °C.
Consider `CN1CC2=C(n3cnc(I)c3C1)S(=O)C=C2` (centres undefined), for which the melting point is 175 to 177 °C.
In turn, `CCCn1c(=O)c2c(nc(/C=C/c3ccc(OC(C)=O)c(OC(C)=O)c3)n2C)n(CCC)c1=O` had a melting point of 229 to 230 °C.
As for `COC(=O)C(C)(SC)c1ccc(N2C(=O)c3ccccc3C2=O)cc1` (centres undefined), the figure is 142 to 145 °C.
As for `COc1cc(C)cc(OC)c1N(CCC(C)C)C(=O)CNC(=O)OC(C)(C)C`, the figure is 132 °C.
As for `Cc1nnc2n1-c1sc(CC(=O)O)cc1C(c1ccccc1Cl)=NC2C` (centres undefined), the figure is 222 to 225 °C.
`CCOC(=O)N1CCN(c2ccc(-n3cc[nH]c3=O)cc2)CC1`: the melting point was found to be 196 °C.
As for `CCCCNc1ncc(C(=O)c2ccc(Cl)c([N+](=O)[O-])c2)s1`, the figure is 192 to 194 °C; as for `Cc1c(C)c(N2CCN(c3ccc(C(F)(F)F)cc3)CC2)c(C)c2c1OC(C)(C)C2=O`, 188 to 190 °C; as for `CCc1ncnc(N[C@H]2CC[C@@H](C#N)CC2)c1Cl`, 131 to 132 °C.
Molecule `CC(C)CCNC(=O)C(c1ccccc1)c1ccccc1` came in with a melting point of 128 °C.
As for `CSc1ccc(C=CC(N)=NO)s1`, the figure is 70 to 71 °C; as for `O=C(O)CCSC1c2ccc(-c3nnn[nH]3)cc2COc2ccc(OCc3ccc4ccccc4n3)cc21` (centres undefined), 151 to 153 °C.
To `CN1CCN(c2n[nH]c3ccccc23)CC1` belongs 111 to 113 °C.
As to `O=C1C[C@H](O)C(=O)N1Cc1ccccc1`, the melting point lay in the range of 110 to 113 °C.
As for `CC(=O)NCC(C)(C)c1ccc2nc(C)[nH]c2c1`, the figure is 198 to 201 °C; as for `Cc1cc(-c2nnc3c4ccccc4c(OCc4ccnn4C)nn23)no1`, 270 °C; as for `CN1C(=O)CC[C@]2(C)c3ccc(-c4ccc(F)c(F)c4)cc3CC[C@@H]12`, 143 to 148 °C.
As for `C#CCSc1ncc(Cl)cn1`, the figure is 66 °C; as for `CC(=O)Nc1ccc(-c2cc(-c3nc4ccccc4c(=O)n3-c3cccc(C)c3)sc2N2CCOCC2)cc1`, above 275 °C.
To `O=C(O)CCCCCCCCOc1ccccc1` belongs 66.5 to 67.5 °C; to `O=P(O)(CCc1ccccc1)CCc1ccccc1`, 84 to 87 °C; to `CCOC(=O)c1cnn(-c2ccc(OCC(C)C)c(C#N)c2)c1Cl`, 87 °C.
In turn, `COc1ccc(S(=O)(=O)C(CC=C(C)C)(Cc2cccnc2)C(=O)O)cc1` (centres undefined) yielded a melting point of 117 to 119 °C.
To `COc1cc2c(cc1OC)CN(CCCOc1ccc(NC(=O)c3ccc4ccccc4c3)cc1)CC2` belongs 189 to 190 °C; to `CCCc1c(OCCCCCC(=O)c2ccc3cc(O)c(O)cc3c2)ccc(C(=O)OCC)c1O`, 170 to 172 °C; to `Cc1oc2ccccc2c1C(=O)N(Cc1ccccc1)Cc1ccc2c(Br)c(O)ccc2c1`, 184 to 185 °C.
As for `COc1ccc(N(C=C(C#N)C#N)CCC#N)cc1`, the figure is 175 to 177 °C.
The molecule `Cc1ccc2sc(C(C)(C)C)nc2c1` came in with a melting point of 55 to 57 °C.
To `O=C1OCCC1=Cc1ccccc1OCC(O)CN1CCC(c2ccc(Cl)c(F)c2)CC1` (centres undefined) belongs 114 to 115 °C; to `OC(c1ccccc1)(c1cccc(Cl)c1)c1ncc[nH]1` (centres undefined), 174 to 175 °C; to `CCOC(=O)[C@H](Cc1ccc(-c2c(C)n(C)c(=O)n(C)c2=O)cc1)NC(=O)c1c(F)cccc1F`, 218 to 219 °C.
As for `COC(=O)[C@@H]1C[C@@H](O)CN1C(=O)c1ccc(C#N)cc1`, the figure is 101 to 102 °C.
As for `N#Cc1ccc(CNCCO)cc1`, the figure is below 60 °C; as for `CNc1ccc(-c2ncn(-c3ccc(OC(F)(F)F)cc3)n2)cc1`, 121 to 123 °C.
With `COc1ccc(COc2ccc3c(c2)C(c2ccc(C(C)C)cc2)C(C)(C)O3)cc1` (centres undefined), the melting point was 124 to 126 °C.
To `Cc1cc(N)nc(CCc2nc3cc(-c4ccc(S(=O)(=O)N5CCC5)cc4)cnc3[nH]2)c1` belongs 168 °C; to `CC1(C)C(=O)Nc2ccccc2NC1=O`, above 270 °C.
On to `CS(=O)(=O)N(c1nc(CN2CCN(C(c3ccccc3)c3ccccc3)CC2)cs1)S(C)(=O)=O`, for which the melting point lay within 167 to 168 °C.
As for `COc1cc2c(C3C(=O)Nc4ccccc43)ncnc2cc1OCc1ccccc1` (centres undefined), the figure is 280 to 285 °C.
As for `Cc1oc(-c2ccccc2)nc1CCOc1ccc(CCCC=C2OC(=O)NC2=O)cc1`, the figure is 152 to 153 °C; as for `CC(C)Oc1cc(CCCOc2nn(Cc3ccccc3)cc2CC(=O)O)n(Cc2ccc(F)cc2Cl)n1`, 121 to 123 °C.
To `NC1c2ccccc2CC2CCCCC21` (centres undefined) belongs 37 to 39 °C.
The molecule `COc1cccc(Sc2ccc(O)cc2)n1` registered a melting point of 88.5 to 94.5 °C.
To `COc1cccc(/C=C/C(=O)/C=C/c2cccc(OC)c2OC)c1OC` belongs 106 to 108 °C; to `CCOCCOc1ncc2cc(-c3c(Cl)cccc3Cl)c(=N)n(C)c2n1`, 133 to 135 °C; to `Cc1nc2cc(Cl)c(C)c(Cl)c2o1`, 80 to 82 °C.
To `COc1cc(C)c(C(=O)O)c(OC)c1OC` belongs 95 to 97 °C; to `COc1cc2c(Nc3ccc4cn[nH]c4c3)c(C#N)cnc2cc1OCCN(C)CC1OCCO1`, 185 to 187 °C; to `COc1c(SC)ccc(C(=O)C(C#N)C(=O)C2CC2)c1Br` (centres undefined), 128 to 129 °C.
As for `O=C(Cn1cncn1)c1cccc2ccccc12`, the figure is 130 °C; as for `CCCOc1nc(N)c2ncn(C3CCCCC3)c2n1`, 146 to 148 °C.
